In brackets after ≈: the same amount, converted by molar mass.

The subject of this assay is Human rhinovirus sp. Kind of assay: In vitro minimum inhibitory concentration against human rhinovirus-14 (HRV-14). The class given is functional.
As for `CCCC[C@@H]1COC(c2ccc(OCCCCCCCc3cc(C)no3)cc2)=N1`, the MIC came to 0.52 µg/mL (≈ 1.3 µM).
The compound `Cc1cc(CCCCCCCOc2ccc(C3=NC(C)CO3)cc2)on1` (stereo not drawn) came in with an MIC of 0.03 µg/mL (≈ 0.0842 µM).
As for `Cc1cc(CCCCCCCOc2ccc(C3=N[C@H](C)CO3)cc2)on1`, the MIC stood at 0.2 µg/mL (≈ 0.561 µM).
Regarding `Cc1cc(CCCCCCCOc2ccc(C3=N[C@@H](C)CO3)cc2)on1`, the MIC was 0.02 µg/mL (≈ 0.0561 µM).
Consider `CC[C@@H]1COC(c2ccc(OCCCCCCCc3cc(C)no3)cc2)=N1`, for which the MIC is 0.06 µg/mL (≈ 0.162 µM).
Compound `Cc1cc(CCCCCCCOc2ccc(C3=N[C@@H](C(C)C)CO3)cc2)on1` yielded an MIC of 0.03 µg/mL (≈ 0.078 µM).
Consider `CCC[C@@H]1COC(c2ccc(OCCCCCCCc3cc(C)no3)cc2)=N1`, for which the MIC is 0.07 µg/mL (≈ 0.182 µM).
Compound `CCCC[C@H]1COC(c2ccc(OCCCCCCCc3cc(C)no3)cc2)=N1` registered an MIC of 0.06 µg/mL (≈ 0.151 µM).
In the case of `Cc1cc(CCCCCCCOc2ccc(C3=N[C@H](C(C)C)CO3)cc2)on1`, the MIC was found to be 0.13 µg/mL (≈ 0.338 µM).
For `CC[C@H]1COC(c2ccc(OCCCCCCCc3cc(C)no3)cc2)=N1`, the MIC was determined as 0.01 µg/mL (≈ 0.027 µM).
Take `CCC[C@H]1COC(c2ccc(OCCCCCCCc3cc(C)no3)cc2)=N1`: the MIC is 0.01 µg/mL (≈ 0.026 µM).
With `Cc1cc(CCCCCCCOc2ccc(C3=NCCO3)cc2)on1` [DISOXARIL] the figure was 0.14 µg/mL (≈ 0.409 µM); with `Cc1cc(CCCCCCCOc2ccc(C3=NC(C)(C)CO3)cc2)on1`, 0.03 µg/mL (≈ 0.081 µM).
